Assay results taken from patent US20170362283A1, “NISIN-BASED COMPOUNDS AND USE THEREOF IN THE TREATMENT OF BACTERIAL INFECTIONS” (UNIVERSITEIT UTRECHT HOLDING B.V., priority 2015, published 2017).
Where two headings read alike, the source gives them in different places.

Key:
[1] = system: E. faecium E980; assay: BioScreen growth assay for E. faecium E980; type: cell-based; conditions: 5 μM
Method: (§1) A BioScreen C instrument (Oy Growth Curves AB, Helsinki, Finland) was used to monitor effects of the compounds (6), (10), and (12) and the effect of compound (24) with R1-group (e), or Comparative compound B (nisin) on E. faecium growth (each compound administered at a fixed concentration 5 μM). E. faecium strains were inoculated at an initial OD660 of 0.05 into 300 μl TSB containing 1% DMSO and 1% glucose or into the same medium containing the antibiotic compounds at a final concentration of 5 μM. […]
(§2) The E. faecium strains used in these experiments are E. faecium E745 (vancomycin-ampicillin resistant hospital outbreak strain), E. faecium E980 (vancomycin-ampicillin susceptible human commensal isolate), E. Faecium E1133 (vancomycin-ampicillin resistant hospital outbreak strain), and E. faecium E1162 (vancomycin-susceptible ampicillin-resistant clinical isolate). The BioScreen growth assays for each strain was determined for the compounds (6), (10), (12) and also for compound (24) with R1-group (e) as well as nisin (Comparative compound B) and compared to non-treated strains, the results being shown in the Tables 9 to 12 below.

[2] = system: erythrocytes; assay: Hemolysis assay; conditions: human erythrocytes, 1 h, at 32 μg/mL
Method: Human whole blood was centrifuged at 600×g for 15 min and levels of plasma and hematocrit were marked on the tube. Plasma was removed and the erythrocytes washed 3× with PBS (centrifuging at 600×g for 15 mins). After discarding the supernatant, the packed cells were stored on ice. 100 μL of the peptides (128 μg/mL in PBS, 2% DMSO) as well as a control solution comprised of 2% DMSO in PBS were added to the top row of a polypropylene, round-bottom 96 well plate and 50 μL of PBS to the rest of the wells. The peptides and the DMSO control solutions were then diluted serially down the rows. 200 μL of the packed cells were added to PBS (10 mL) and 50 μL of this suspension was added to each well. A column with DI water containing 0.1% Triton X-100 was used as the 100% lysis control, and the column containing the serially-diluted PBS (1.0% DMSO) control served as the 0% lysis reference. The cells were incubated at 37° C. for 1 h. After incubation the plates were centrifuged (800×g, 5 min) and 25 μL of the supernatant was added to 100 μL DI water in a flat-bottom plate (polystyrene). The absorption at 414 nm was recorded to measure the amount of free hemoglobin.

[3] = system: S. aureus; conditions: duplicate experiments
[4] = system: B. subtilis; conditions: duplicate experiments
[5] = system: E. coli; conditions: duplicate experiments
[6] = system: VRE 155; type: cell-based; conditions: duplicate experiments
In short: (§3)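 Broth dilution MIC following CLSI M07-A9; overnight TSB cultures diluted to 0.5×10^6 CFU in TSB and incubated with compound at 37° C for 16 hours. MIC read by visual inspection of growth.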

[7] = system: M. luteus; type: cell-based; conditions: duplicate experiments
In short: as §3

[8] = system: thirty VRE strains
[9] = system: E. faecium E1162; assay: BioScreen growth assay for E. faecium E1162; type: cell-based; conditions: 5 μM
Method: as §1, §2

[10] = system: E. faecium E1133; assay: BioScreen growth assay for E. faecium E1133; type: cell-based; conditions: 5 μM
Method: as §1, §2

[11] = system: MRSA USA300; type: cell-based, Staphylococcus aureus; conditions: duplicate experiments
In short: as §3

[12] = system: MRSA WKZ2; type: cell-based, Staphylococcus aureus; conditions: duplicate experiments
In short: as §3

[13] = system: E. faecium E745; assay: BioScreen growth assay for E. faecium E745; type: cell-based; conditions: 5 μM
Method: as §1, §2

Work on nisin [Compound B] yielded an OD600 ([1]; time 0 h) of 0.016, an OD600 ([1]; time 4 h) of 0.01167 and an OD600 ([1]; time 8 h) of 0.011. For the same substance, the OD600 ([1]; time 12 h) was 0.011, the OD600 ([1]; time 16 h) was 0.01067 and the hemolysis [2] was “negligible hemolysis”. The “MIC values S. aureus” value [3] was 10 mg/L, the “MIC values B. subtilis” value [4] was 0.625 to 2.5 mg/L and the “MIC values E. coli” value [5] was >10 mg/L. For the same substance, the “MIC values VRE 155” value [6] was 5 mg/L, the “MIC values M. luteus” value [7] was 0.02 to 0.03 mg/L and the MIC ([8]; VRE strain E0013, GBR, vanA) was 8 mg/L. For the same substance, the MIC ([8]; VRE strain E0072, NLD, vanA) was 2 mg/L, the MIC ([8]; VRE strain E0300, USA, vanA) was 8 mg/L and the MIC ([8]; VRE strain E0321, FRA, vanA) was 2 mg/L. It also gave an MIC ([8]; VRE strain E0333, ISR, vanA) of 4 to 8 mg/L, an MIC ([8]; VRE strain E0338, ITA, vanA) of 8 mg/L and an MIC ([8]; VRE strain E0341, GBR, vanA) of 4 mg/L. It also gave an MIC ([8]; VRE strain E0506, AUS, vanA) of 4 to 8 mg/L, an MIC ([8]; VRE strain E0745, NLD, vanA) of 4 mg/L and an MIC ([8]; VRE strain E1130, USA, vanA) of 4 to 8 mg/L. For the same substance, the MIC ([8]; VRE strain E1441, GRC, vanA) was 4 mg/L, the MIC ([8]; VRE strain E1679, BRA, vanA) was 4 mg/L and the MIC ([8]; VRE strain E1763, BEL, vanA) was 8 mg/L. For the same substance, the MIC ([8]; VRE strain E2297, USA, vanA) was 4 mg/L, the MIC ([8]; VRE strain E2359, SGP, vanB) was 8 mg/L and the MIC ([8]; VRE strain E2365, HUN, vanB) was 2 to 4 mg/L. The MIC ([8]; VRE strain E2373, SRB, vanA) was 4 mg/L, the MIC ([8]; VRE strain E6016, LVA, vanA) was 4 mg/L and the MIC ([8]; VRE strain E7312, NLD, vanA) was 4 mg/L. For the same substance, the MIC ([8]; VRE strain E7314, NLD, vanB) was 4 to 8 mg/L, the MIC ([8]; VRE strain E7319, NLD, vanA) was 4 mg/L and the MIC ([8]; VRE strain E7329, NLD, vanA) was 4 mg/L. For the same substance, the MIC ([8]; VRE strain E7401, NLD, vanB) was 8 mg/L, the MIC ([8]; VRE strain E7403, NLD, vanB) was 4 mg/L and the MIC ([8]; VRE strain E7413, NLD, vanA) was 4 mg/L. For the same substance, the MIC ([8]; VRE strain E7424, NLD, vanB) was 4 mg/L, the MIC ([8]; VRE strain E7464, NLD, vanB) was 4 mg/L and the MIC ([8]; VRE strain E8218, NLD, vanB) was 4 mg/L. It also gave an MIC ([8]; VRE strain E8235, NLD, vanB) of 4 mg/L, an MIC ([8]; VRE strain E8237, NLD, vanA) of 8 mg/L and an OD600 ([9]; time 0 h) of 0.024. For the same substance, the OD600 ([9]; time 4 h) was 0.01533, the OD600 ([9]; time 8 h) was 0.01133 and the OD600 ([9]; time 12 h) was 0.012. It also gave an OD600 ([9]; time 16 h) of 0.01033, an OD600 ([10]; time 0 h) of 0.016 and an OD600 ([10]; time 4 h) of 0.009667. The OD600 ([10]; time 8 h) was 0.009333, the OD600 ([10]; time 12 h) was 0.009333 and the OD600 ([10]; time 16 h) was 0.008667. For the same substance, the “MIC values MRSA USA300” value [11] was 10 mg/L, the “MIC values MRSA WKZ2” value [12] was 10 mg/L and the OD600 ([13]; time 0 h) was 0.01733. For the same substance, the OD600 ([13]; time 4 h) was 0.01033, the OD600 ([13]; time 8 h) was 0.01033 and the OD600 ([13]; time 12 h) was 0.01067. For the same substance, the OD600 ([13]; time 16 h) was 0.008667.
